Read-outs that look alike come from different tables or passages of the source.
Columns and labels:
[1] = Fluorescence spectra and quantum yield in pH 7.4, 0.1 M PBS; type: physicochemical; settings: for fluorescence quantum yield Φ: quinine sulfate as standard
Excerpt: (§1) was used to examine possible quinone propionic acid quenchers and 1,8-naphthalimide reporters as well as linkers between the OeT quencher and the NI reporter, so as to ensure that quenching is thermodynamically feasible and efficient. In this equation, ED is the redox potential of the donor and EA that of the acceptor, ΔG00 is the energy of the first excited singlet state of the reporter, and e^2/εd is the Coulombic interaction energy of the ion pair, known to be 0.06 eV. The energy of the first excited singlet state of NI was measured to be 3.06 eV. […] The quinone was attached to the naphthalimide via an N-methylethanolamine linker through a carbamate to the amine of the naphthalimide ring. This linker imparts three properties on Q3NI: the linker is sufficiently short to allow for a high probability of electron transfer, the electron-withdrawing carbamate yields a favorable ΔGPeT, and the presence of the tertiary amide provides enhanced environmental stability. As a result, the fluorescence of Q3NI in pH 7.4, 0.1 M PBS is effectively quenched in comparison to that of the free NI reporter, as noted by their spectra in FIGS. 3B and 3C and respective fluorescence quantum yields Φ of 0.007 and 0.23 obtained using quinine sulfate as standard. […] The 33-fold fluorescence enhancement for NI versus Q3NI and very large Stokes shift of 116 nm (λmax abs=374 run, λmax em=490 nm) bode well for use of Q3NI as a multifunctional turn-on probe for sensing and imaging applications that utilize reductive stimuli capable of initiating removal of the reduced quinone group.

[2] = Voltammetric redox potentials and Rehm-Weller calculation of PeT energy; type: physicochemical
Excerpt: Embodiments of the present invention provide a probe (Q3NI) having fluorescence signal of a naphthalimide reporter quenched via oxidative electron transfer (OeT) by a covalently attached quinone propionic acid motif. See, e.g. FIG. 3A. The Q3NI provides the novel mechanism of reporter quenching by carefully tuning the electronic and optical properties of the quinone (Q3) OeT quencher and the naphthalimide reporter (NI), due to extant naphthalimide reporters that are quenched by reductive electron-transfer (ReT). The Rehm-Weller equation,
as §1

[3] = pKa of secondary amine of reporter; type: physicochemical
[4] = tested on: fixed samples; test: Reporter retention in paraformaldehyde-fixed cell samples; type: cell-based; settings: paraformaldehyde fixing; fixed samples stored for 10 months in the laboratory ambient
Excerpt: (§2) There was no indication of reporter in the nucleus, pointing to the lack of NQOI there; this is in contrast to previous work using immunohistochemical staining of penneabilized, fixed cells. The average cytosolic signal was 9 times higher in A549 cells versus NQOI-negative H596 cells, while it was 23 times higher in HT-29 cells compared to the NQOI-negative H596 cells. […] Accumulation of the basic (secondary amine pKa ˜11) NI occurred in acidic late endosomal and lysosomal vesicles, a beneficial outcome that leads to enhanced intracellular retention of NI. […] Collectively, there is great potential for use of our probe/reporter system for ex vivo quantitative analysis of excised tumor cells and long-term in vivo and in vitro imaging.

[5] = biological target: human NAD(P)Rquinone oxidoreductase isozyme 1 (hNQO1) (Homo sapiens, UniProt P15559); test: Michaelis-Menten kinetics of hNQO1 activation of the probe (NI reporter production); type: biochemical
Sequence of human NAD(P)Rquinone oxidoreductase isozyme 1 (hNQO1) (P15559 whole entry): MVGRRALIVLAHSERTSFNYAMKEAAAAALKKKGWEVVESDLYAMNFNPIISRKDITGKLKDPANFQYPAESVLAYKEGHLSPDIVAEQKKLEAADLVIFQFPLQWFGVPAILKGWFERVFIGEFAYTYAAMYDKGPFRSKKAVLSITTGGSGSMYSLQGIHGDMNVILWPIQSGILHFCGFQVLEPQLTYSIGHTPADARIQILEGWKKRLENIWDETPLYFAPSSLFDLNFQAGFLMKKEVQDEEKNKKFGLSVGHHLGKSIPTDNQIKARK
Excerpt: In embodiments of the present in invention hNQO 1 reduces fluorescent probes cloked with a quinone moiety. In embodiments of the present invention, Q3NI is a probe capable of activation by hNQO1 to yield the NI reporter at a significant rate. Apparent kinetic parameters of Q3NI were obtained from Michaelis-Menten kinetic treatment of the time-dependent NI reporter production, namely the Michaelis constant (Km), maximum velocity (Vmax), catalytic constant (kcat), and substrate specificity (kcat/Km). The high rate of NI reporter production under in vitro conditions is readily apparent in FIG. 7; after 5 min, a fluorescent signal has been attained that is 22% of the maximum achievable, yielding 2.2×10^−7 M of released reporter.

[6] = tested on: A549; test: Unaided-eye visualization of cultured cells with handheld 365 nm lamp; type: cell-based, human; settings: 2×10^−5 M Q3NI, 10 min incubation; 5.72×10^6 total cells
Protocol: (§3) Embodiments of the present invention may allow for cancer cells to be rapidly visualized and differentiated. […] After a 10 min incubation period in a cell culture solution containing 2×10^−5 M Q3NI, it was possible to differentiate between the various substrate-cultured cells (4.84 cm^2) using only a handheld fluorescent lamp emitting at 365 nm and the unaided eye. […] The ability to visually determine the presence of hNQO1 in a small number of cells is due to the marked difference in fluorescence from the unquenched NI reporter (Φ=0.23) and quenched Q3NI probe (Φ=0.007) and the large Stokes shift of the NI reporter that results in fluorescence emission in the visible spectrum (400 nm to ˜600 nm). These outcomes point to use of the Q3NI probe sensor in the real-time, visible (without the aid of imaging equipment), and accurate determination of tumor/healthy tissue borders so as to allow for surgical resection of tumors with small foci.

[7] = tested on: H596; test: as above; type: cell-based, human; settings: 2×10^−5 M Q3NI, 10 min incubation; 3.96×10^6 total cells
Protocol: as §3

[8] = tested on: HT-29; test: as above; type: cell-based, human; settings: 2×10^−5 M Q3NI, 10 min incubation; 3.69×10^6 total cells
Protocol: as §3

[9] = tested on: A549; test: Flow cytometry assay of Q3NI activation; type: cell-based, human; settings: 10 min or 60 min incubation; λex=405 nm, λem=457/60 nm; 10,000 cells
Protocol: (§4) Flow cytometry assays were used to assess the applicability of the Q3NI probe to rapidly detect and quantify tumor cells containing hNQO1. See, FIG. 8. The probe was incubated in a suspension of HT-29, A549, H596, and H446 (a small-cell lung carcinoma known to be devoid of hNQO1 activity) cells for either 10 min or 60 min, and a flow cytometer was used to measure fluorescence (λex=405 nm, λem=457/60 nm) in 10,000 individual cells. […] Importantly, the sustained low fluorescence observed with the H446 cells (FIG. 8) points to the intracellular stability of Q3NI (lack of nonspecific activation).

[10] = tested on: H446; test: Flow cytometry assay of Q3NI activation; type: cell-based, human; settings: 10 min or 60 min incubation; λex=405 nm, λem=457/60 nm; 10,000 cells
Protocol: as §4

[11] = tested on: H596; test: Flow cytometry assay of Q3NI activation; type: cell-based, human; settings: 10 min or 60 min incubation; λex=405 nm, λem=457/60 nm; 10,000 cells
Protocol: as §4

[12] = tested on: HT-29; test: Flow cytometry assay of Q3NI activation; type: cell-based, human; settings: 10 min or 60 min incubation; λex=405 nm, λem=457/60 nm; 10,000 cells
Protocol: as §4

[13] = tested on: A549 cells; test: Wide-field fluorescence imaging of fixed cells; type: cell-based, human; settings: 10 min exposure
Excerpt: as §2

[14] = tested on: H596 cells; test: Wide-field fluorescence imaging of fixed cells; type: cell-based, human; settings: 10 min exposure
Excerpt: as §2

[15] = tested on: HT-29 cells; test: Wide-field fluorescence imaging of fixed cells; type: cell-based, human; settings: 10 min exposure
Excerpt: as §2

[16] = tested on: A549 cells; test: 2-photon microscopy of living cells; type: cell-based, human; settings: 2.0×10^−5 M Q3NI in complete growth medium
Excerpt: (§5) Multiphoton (MP) microscopy imaging of cells and tissues may be more advantageous than traditional fluorescence microscopy, because use of the characteristic long-wavelength photons offers higher fluorophore and cellular photostability that provides extended imaging duration, less background signal from out-of-focus excitation and scattering events, and deeper penetration depth. In addition, MP imaging is ideal for direct observation of targets in their physiological environment and ex vivo thick-specimen sampling where 2D and 3D maps can be generated. […] As before, the signal appears somewhat heterogeneous throughout the cytosolic space of the HT-29 and A549 cells due to NI accumulation in acidic organelles. To ensure Q3NI and NI had little effect on cell health, cells were incubated in a 2.0×10^−5 M Q3NI solution in complete growth medium for 1 h and 1 day, and then cell viability was assessed with a trypan blue assay. After 1 h, cell viability for HT-29, A549, and H596 was 97.7%, 98.8%, and 100%, while it was 97.7%, 98.7%, and 98.4% after 24 h.

[17] = tested on: H446; test: 2-photon microscopy of living cells; type: cell-based, human; settings: 2.0×10^−5 M Q3NI in complete growth medium
Excerpt: as §5

[18] = tested on: H596; test: 2-photon microscopy of living cells; type: cell-based, human; settings: 2.0×10^−5 M Q3NI in complete growth medium
Excerpt: as §5

[19] = tested on: HT-29 cell line; test: 2-photon microscopy of living cells; type: cell-based, human; settings: 2.0×10^−5 M Q3NI in complete growth medium
Excerpt: as §5

[20] = tested on: A549; test: Trypan blue cell viability assay; type: cell-based, human; settings: 2.0×10^−5 M Q3NI
Excerpt: as §5

[21] = tested on: H596; test: Trypan blue cell viability assay; type: cell-based, human; settings: 2.0×10^−5 M Q3NI
Excerpt: as §5

[22] = tested on: HT-29; test: Trypan blue cell viability assay; type: cell-based, human; settings: 2.0×10^−5 M Q3NI
Excerpt: as §5

[23] = other dyes applied to cancer detection and localization; cited from earlier work

SMILES: CCCCN1C(=O)c2cccc3c(NC(=O)OCCNC)ccc(c23)C1=O [NI]
- fluorescence enhancement for NI versus Q3NI ([1]; pH 7.4, 0.1 M PBS): 33 fold
- fluorescence quantum yield Φ ([1]; pH 7.4, 0.1 M PBS): 0.23
- Stokes shift ([1]; λmax abs=374, λmax em=490 nm): 116 nm
- energy of the first excited singlet state [2]: 3.06 eV
- ED, redox potential of the donor ([2]; voltammetric measurements): 1.74 V
- secondary amine pKa [3]: ~11
- efflux of reporter from cells / fluorescence retention [4]: no apparent efflux

SMILES: CCCCN1C(=O)c2cccc3c(NC(=O)OCCN(C)C(=O)CC(C)(C)C4=C(C)C(=O)C(C)=C(C)C4=O)ccc(c23)C1=O [Q3NI]
- fluorescent signal as % of the maximum achievable ([5]; after 5 min, in vitro): 22%
- released reporter ([5]; after 5 min, in vitro): 220 nM
- catalytic constant (kcat) ([5]; apparent, FIG. 7): 0.019 ± 0.001 s⁻¹
- maximum velocity (Vmax) ([5]; apparent, FIG. 7): 0.037±0.002 μmol min^−1 mg·NQO^−1
- Km ([5]; apparent, from time-dependent NI reporter production, FIG. 7, read-out: Michaelis constant (Km)): 3.86 ± 0.79 µM
- fluorescence quantum yield Φ ([1]; pH 7.4, 0.1 M PBS): 0.007
- ΔGPeT, energy change for the OeT process ([2]; Rehm-Weller equation): −0.37 eV
- EA, redox potential of the acceptor (quinone propionic acid group) ([2]; voltammetric measurements): −1.01 V
- appearance under 365 nm handheld lamp, unaided eye [6]: fluorescent blue
- appearance under 365 nm handheld lamp, unaided eye [7]: no apparent emission
- appearance under 365 nm handheld lamp, unaided eye [8]: fluorescent blue
- flow cytometry fluorescence histogram [9]: high-intensity, unimodal distribution of signals
- flow cytometry fluorescence histogram [10]: minimal fluorescence
- flow cytometry fluorescence histogram [11]: minimal fluorescence
- flow cytometry fluorescence histogram [12]: high-intensity, unimodal distribution of signals
- average cytosolic signal versus NQO1-negative H596 cells [13]: 9 times
- intracellular NI fluorescence signal [14]: minimal signal
- average cytosolic signal versus NQO1-negative H596 cells [15]: 23 times
- average fluorescence signal compared to H596 cells [16]: 13 fold
- average fluorescence signal versus H446 cells [16]: 3.66×10^4 fold
- fluorescence signal from NI [17]: minimal signal
- fluorescence signal from NI [18]: minimal signal
- cytosolic intensity compared to H446 cells [19]: 4.51×10^4 fold
- cytosolic intensity compared to H596 cells [19]: 15 fold
- cell viability ([20]; after 1 h): 98.8%
- cell viability ([20]; after 24 h): 98.7%
- cell viability ([21]; after 1 h): 100%
- cell viability ([21]; after 24 h): 98.4%
- cell viability ([22]; after 1 h): 97.7%
- cell viability ([22]; after 24 h): 97.7%

SMILES: CC1(C)C(/C=C/C=C/C=C/C=C2\N(CCCCS(=O)(=O)O)c3ccc4ccccc4c3C2(C)C)=[N+](CCCCS(=O)(=O)[O-])c2ccc3ccccc3c21 [indocyanine green]
- fluorescence quantum yield Φ [23]: 0.0028

From patent US20160025711A1, “FLUORESCENT MARKERS AND METHODS FOR IMAGING DISEASES” (BOARD OF SUPERVISORS OF LOUISIANA STATE UNIVERSITY AND …, priority 2013, published 2016)
